From US5403717A, “Diagnosis of premalignant or malignant conditions of human secretory epithelia” (Pacific Northwest Research, priority 1992, dated 1995)

What was measured:
[1] = molecular target: T1, β1→3N-acetylglucosaminyltransferase (Homo sapiens, UniProt Q9BYG0); assay: β1→3N-acetylglucosaminyltransferase assay with Triton X-100 solubilized enzyme from SW403 cells; type: biochemical; conditions: for fold less activity on substitution of Mn++: 10 mM final concentration, compared to Mn++; for β1-3N-acetylglucosaminyltransferase activity, Mn++ replaced by the named agent: plus agent at 10 mM final; for effect of removal from the reaction mixture on activity (in words): component removed from complete system; for β1-3N-acetylglucosaminyltransferase activity, named component omitted from complete system: component removed; for Effect of detergents on β1-3N-acetylglucosaminyltransferase activity: detergent added at 0.3% final concentration, 0.05% Triton X-100 present from enzyme, acceptor lactosylceramide
T1 construct: solubilized from a 27,000 x g membrane pellet of SW403 cells by 0.2% Triton X-100; endogenous in cells; host or cells: SW403 cells (human colonic adenocarcinoma), 0.2% Triton X-100 soluble membrane fraction
T1 sequence (Q9BYG0 1-378): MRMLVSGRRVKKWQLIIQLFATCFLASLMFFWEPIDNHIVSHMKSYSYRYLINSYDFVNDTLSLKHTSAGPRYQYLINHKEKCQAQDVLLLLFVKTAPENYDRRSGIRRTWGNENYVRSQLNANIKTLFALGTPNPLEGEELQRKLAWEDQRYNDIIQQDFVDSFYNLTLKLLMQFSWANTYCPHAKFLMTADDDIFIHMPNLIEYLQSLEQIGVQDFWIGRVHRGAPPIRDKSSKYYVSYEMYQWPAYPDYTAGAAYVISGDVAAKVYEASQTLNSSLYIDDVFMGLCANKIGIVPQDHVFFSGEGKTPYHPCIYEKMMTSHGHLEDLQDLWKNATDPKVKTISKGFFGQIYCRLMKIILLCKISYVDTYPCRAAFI
Procedure: (§1) The labelled product was extracted into the lower phase of a Folch extraction (J. Biol. Chem., 191, 819-831), dried by an N2 stream, and dissolved in 20 μl of CHCl3 :CH3 OH (2:1). An aliquot, 10 μl was spotted on a HPTLC plate (Merck) and developed in a solvent composed of CHCl3 :CH3 OH:H2 O (60:35:8). The labelled glycolipids were located by autoradiography, scraped, and quantitated in a liquid scintillation counter.

[2] = tested on: β1→3N-acetylglucosaminyltransferase; assay: as above; type: biochemical, human; conditions: for Substrate specificity of β1-3N-acetylglucosaminyltransferase: transfer of GlcNAc to acceptor: 40 ug of each acceptor, ND = none detected
Procedure: as §1

[3] = molecular target: T2, β1-3galactosyltransferase (Homo sapiens, UniProt Q9Y2C3); assay: Effect of α-lactalbumin on β1-3galactosyltransferase of a 0.2% Triton X-100 soluble fraction from SW403 cells; type: biochemical; conditions: 30 μg acceptor, 0.2 mg solubilized protein
T2 construct: catalyzed by a 0.2% Triton X-100 soluble fraction from SW403 cells; endogenous in cells; host or cells: SW403 cells (human colonic adenocarcinoma), 0.2% Triton X-100 soluble fraction
T2 sequence (Q9Y2C3 1-310): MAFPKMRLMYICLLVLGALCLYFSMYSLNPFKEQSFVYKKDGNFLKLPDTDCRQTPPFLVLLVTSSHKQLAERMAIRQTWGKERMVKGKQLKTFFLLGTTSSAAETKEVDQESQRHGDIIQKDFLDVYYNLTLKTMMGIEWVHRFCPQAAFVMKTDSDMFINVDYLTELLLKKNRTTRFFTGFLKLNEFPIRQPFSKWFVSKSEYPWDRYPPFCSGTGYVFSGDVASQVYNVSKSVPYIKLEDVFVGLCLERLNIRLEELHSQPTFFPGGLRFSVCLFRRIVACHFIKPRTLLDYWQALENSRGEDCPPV
Procedure: The effect of increasing α-lactalbumin on the transfer of galactose to glucosylceramide, +--+, Lc3 forming nLc4, o--o, and Lc3 forming Lc4, x--x, catalyzed by a 0.2% Triton X-100 soluble fraction from SW403 cells is shown. The assays were conducted in the presence of 30 μg of the indicated acceptor and 0.2 mg of solubilized protein.
Synthesis of type 1 and 2 chain structures Lc4 and nLc4 are catalyzed by β1-3 and β1-4galactosyltransferases, respectively, competing for Lc3. A β1-4-galactosyltransferase responsible for transfer of Gal to Lc3 in human plasma was previously reported to be lactose synthetase A protein which was also involved in the synthesis of lactosylceramide (J. Biochem., 92, 1123-1127 (1982)). The effect of increasing α-lactalbumin on the β1-4galactosyltransferase activity in SW403 cells is seen with glucosylceramide and Lc3 as acceptors.
The reaction mixtures contained 2.5 μmol HEPES buffer, pH 7.0, 20 μg Lc3, 10 μg deoxycholate, 1 μmol MnCI2, 0.5 μmol CDPcholine, 0.5 μmol galactonolactone, 15 nmol UDP[^14 C]galactose (30,000 cpm/nmol), and 0.1 mg protein in a total volume of 0.1 ml. […] The incorporation of [^14 C]galactose into glycolipid was determined as described above.

## [Mg+2] [Mg^++]
[1]
  fold less activity on substitution of Mn++: 21 fold
[1]; complete system gives 76.0
  β1-3N-acetylglucosaminyltransferase activity, Mn++ replaced by the named agent: 3.6 pmol/hr/mg protein

## C[N+](C)(C)CCOP(=O)(O)OP(=O)([O-])OC[C@H]1O[C@@H](n2ccc(N)nc2=O)[C@H](O)[C@@H]1O [CDPcholine]
[1]
  effect of removal from the reaction mixture on activity (in words): significant loss of activity
[1]; complete system gives 76.0
  β1-3N-acetylglucosaminyltransferase activity, named component omitted from complete system: 65.3 pmol/hr/mg protein

## lactosylceramide
[1]
  effect of removal from the reaction mixture on activity (in words): greatly diminished the activity
[1]; complete system gives 76.0
  β1-3N-acetylglucosaminyltransferase activity, named component omitted from complete system: 8.3 pmol/hr/mg protein
[2]
  Substrate specificity of β1-3N-acetylglucosaminyltransferase: transfer of GlcNAc to acceptor: 76 pmol/hr/mg protein

## C[C@H](CCC(=O)NCCC[N+](C)(C)CC(O)CS(=O)(=O)[O-])[C@H]1CC[C@H]2[C@@H]3[C@H](O)C[C@@H]4C[C@H](O)CC[C@]4(C)[C@H]3C[C@H](O)[C@]12C (some centres unmarked) [CHAPSO]
[1]
  Effect of detergents on β1-3N-acetylglucosaminyltransferase activity: 54.5 pmol/hr/mg protein

## Lactotetraosylceramide [Lc4]
[2]
  Substrate specificity of β1-3N-acetylglucosaminyltransferase: transfer of GlcNAc to acceptor: 27 pmol/hr/mg protein
[2]; SW403 cell enzyme, lacto-series glycolipid acceptors
  transfer of GlcNAc to acceptor (in words): detectable but is much lower

## Triton X-100
[1]
  Effect of detergents on β1-3N-acetylglucosaminyltransferase activity: 67.9 pmol/hr/mg protein

## C[C@H](CCC(=O)O)[C@H]1CC[C@H]2[C@@H]3CC[C@@H]4C[C@H](O)CC[C@]4(C)[C@H]3C[C@H](O)[C@]12C [Deoxycholate]
[1]
  Effect of detergents on β1-3N-acetylglucosaminyltransferase activity: 67.5 pmol/hr/mg protein

## [Ca+2] [Ca^++]
[1]
  fold less activity on substitution of Mn++: 13 fold
[1]; complete system gives 76.0
  β1-3N-acetylglucosaminyltransferase activity, Mn++ replaced by the named agent: 6.0 pmol/hr/mg protein

## CC(=O)N[C@H]1C(O)O[C@H](CO)[C@@H](O)[C@@H]1O (some centres unmarked) [GlcNAc]
[1]; GlcNAc 10 mM final, complete system gives 76.0
  β1-3N-acetylglucosaminyltransferase activity, GlcNAc added to complete system: 80.3 pmol/hr/mg protein
[1]; agent at 10 mM final concentration (EDTA in place of Mn++; GlcNAc added)
  effect on transfer of GlcNAc to lactosylceramide (in words): only slight stimulation of the activity

B1: α-lactalbumin: protein modifier of lactose synthetase A protein (β1-4galactosyltransferase) (protein, UniProt P00709 20-142, looked up)
Alpha-lactalbumin: KQFTKCELSQLLKDIDGYGGIALPELICTMFHTSGYDTQAIVENNESTEYGLFQISNKLWCKSSQVPQSRNICDISCDKFLDDDITDDIMCAKKILDIKGIDYWLAHKALCTEKLEQWLCEKL
[3]
  effect of α-lactalbumin on β1-3galactosyltransferase with Lc3 as acceptor (forming Lc4): Slight activation
